Experiments:
Pyrenophora teres = test: In vivo preventive test on Pyrenophora teres (barley); details: 500 ppm of active ingredient, evaluated 7-9 days after inoculation
Experimental: Solvent: 49 parts by weight of N,N-dimethylformamide Emulsifier: 1 part by weight of alkylaryl polyglycol ether To produce a suitable preparation of active compound, 1 part by weight of active compound is mixed with the stated amounts of solvent and emulsifier, and the concentrate is diluted with water to the desired concentration. To test for preventive activity, young plants are sprayed with the preparation of active compound at the stated rate of application. One day after this treatment, the plants are inoculated with an aqueous spore suspension of Pyrenophora teres. The plants remain for 48 hours in an incubation cabinet at 22° C. and a relative atmospheric humidity of 100%. Then the plants are placed in a greenhouse at a temperature of approximately 20° C. and a relative atmospheric humidity of approximately 80%. The test is evaluated 7-9 days after the inoculation. 0% means an efficacy which corresponds to that of the untreated control while an efficacy of 100% means that no disease is observed.

[1] = log P by HPLC on reversed-phase column (C 18), EEC Directive 79/831 Annex V.A8; assay type: physicochemical; details: HPLC on reversed-phase column (C 18); 40° C.; 0.1% aqueous formic acid and acetonitrile; linear gradient 10% to 90% acetonitrile
Experimental: In table 1, the log P values were determined in accordance with EEC Directive 79/831 Annex V.A8 by HPLC (High Performance Liquid Chromatography) on a reversed-phase column (C 18), using the method described below: Temperature: 40° C.; Mobile phases: 0.1% aqueous formic acid and acetonitrile; linear gradient from 10% acetonitrile to 90% acetonitrile. Calibration was carried out using unbranched alkan-2-ones (comprising 3 to 16 carbon atoms) with known log P values (determination of the log P values by the retention times using linear interpolation between two successive alkanones). lambda-max-values were determined using UV-spectra from 200 nm to 400 nm and the peak values of the chromatographic signals.

Alternaria solani = test: In vivo preventive test on Alternaria solani (tomato); details: 500 ppm of active ingredient, evaluated 7 days after inoculation
Experimental: Solvent: 49 parts by weight of N,N-dimethylformamide Emulsifier: 1 part by weight of Alkylarylpolyglycolether To produce a suitable preparation of active compound, 1 part by weight of active compound is mixed with the stated amounts of solvent and emulsifier, and the concentrate is diluted with water to the desired concentration. To test for preventive activity, young plants are sprayed with the preparation of active compound at the stated rate of application. One day after this treatment, the plants are inoculated with an aqueous spore suspension of Alternaria solani. The plants remain for one day in an incubation cabinet at approximately 22° C. and a relative atmospheric humidity of 100%. Then the plants are placed in an incubation cabinet at approximately 20° C. and a relative atmospheric humidity of 96%. The test is evaluated 7 days after the inoculation. 0% means an efficacy which corresponds to that of the untreated control while an efficacy of 100% means that no disease is observed.

SMILES | logP [1] | Efficacy (Pyrenophora teres) [%] | Efficacy (Alternaria solani) [%]
Cn1nc(C(F)F)c(C(=O)N2CCCCC2c2ccc(Cl)cc2Cl)c1Cl (stereo not drawn) [Example 80] | 4.06 | 95 | 100
Cn1nc(C(F)F)c(C(=O)N2CCCCC2c2ccccc2Br)c1Cl (stereo not drawn) [Example 90] | 3.55 | 95 | 90
Cc1cc(C(=O)N2CCCCC2c2cccc(Br)c2)c(C)o1 (stereo not drawn) [Example 93] | 4.11 | 95 | 90
CCc1nn(C)c(F)c1C(=O)N1CCCCC1c1cccc(Br)c1 (stereo not drawn) [Example 94] | 3.44 | 70 | 100
Cn1nc(C(F)F)c(C(=O)N2CCCCC2c2cccc(Br)c2)c1Cl (stereo not drawn) [Example 96] | 3.71 | 100 | 100
Cc1nn(C)c(F)c1C(=O)N1CCCCC1c1ccc(Br)cc1 (stereo not drawn) [Example 99] | 3.11 | 100 | 90
Cn1nc(C(F)F)c(C(=O)N2CCCCC2c2ccc(Br)cc2)c1Cl (stereo not drawn) [Example 103] | 3.78 | 95 | 80
Cn1nc(C(F)F)c(C(=O)N2CCCCC2c2ccc(Br)cc2)c1F (stereo not drawn) [Example 104] | 3.60 | 95 | 100
Cn1nc(C(F)F)c(C(=S)N2CCCCC2c2ccc(Br)cc2)c1F (stereo not drawn) [Example 105] | 4.29 | 100 | 100
Cc1nn(C)c(F)c1C(=O)N1CCCCC1c1cccc(Oc2ccccc2)c1 (stereo not drawn) [Example 113] | 3.60 | 90 | 94
Cn1nc(C(F)F)c(C(=O)N2CCCCC2c2cccc(Oc3ccccc3)c2)c1Cl (stereo not drawn) [Example 114] | 4.18 | 80 | 90
Cc1cc(C(=O)N2CCCCC2c2ccc3ccccc3c2)c(C)o1 (stereo not drawn) [Example 120] | 4.39 | 70 | 80
Cn1nc(C(F)F)c(C(=O)N2CCCCC2c2ccc3ccccc3c2)c1Cl (stereo not drawn) [Example 121] | 3.87 | 90 | 80
Cc1nn(C)c(F)c1C(=O)N1CCCCC1c1ccc(Br)s1 (stereo not drawn) [Example 124] | 3.13 | 100 | 95
CCc1nn(C)c(F)c1C(=O)N1CCCCC1c1ccc(Br)s1 (stereo not drawn) [Example 125] | 3.51 | 80 | 90
Cc1nn(C)c(F)c1C(=O)N1CCCCC1Cc1ccccc1 (stereo not drawn) [Example 129] | 2.54 | 100 | 95
Cc1cc(C(=O)N2CCCCC2Cc2ccccc2)c(C)o1 (stereo not drawn) [Example 132] | 3.58 | 90 | 90
Cn1nc(C(F)F)c(C(=O)N2CCCCC2Cc2ccccc2)c1F (stereo not drawn) [Example 134] | 3.09 | 100 | 100
CCC(c1ccccc1)C1CCCCN1C(=O)c1c(C(F)F)nn(C)c1Cl (stereo not drawn) [Example 135] | 3.87 | 94 | 95
CC(c1ccccc1)C1CCCCN1C(=O)c1c(C(F)F)nn(C)c1Cl (stereo not drawn) [Example 137] | 3.59 | 100 | 100
Cc1nc(C(F)F)c(C(=O)N2CCCCC2Cc2ccccc2C)s1 (stereo not drawn) [Example 142] | 3.50 | 95 | 94
Cc1cccc(CC2CCCCN2C(=O)c2c(C(F)F)nn(C)c2F)c1 (stereo not drawn) [Example 144] | 3.44 | 100 | 100
Cc1cccc(CC2CCCCN2C(=O)c2sc(C)nc2C(F)F)c1 (stereo not drawn) [Example 145] | 3.57 | 80 | 75
Cc1ccc(CC2CCCCN2C(=O)c2c(C(F)F)nn(C)c2F)cc1 (stereo not drawn) [Example 147] | 3.46 | 100 | 100
Cc1ccc(CC2CCCCN2C(=O)c2sc(C)nc2C(F)F)cc1 (stereo not drawn) [Example 148] | 3.59 | 95 | 94
Cc1ccc(OCC2CCCCN2C(=O)c2c(C(F)F)nn(C)c2Cl)cc1 (stereo not drawn) [Example 149] | 3.55 | 95 | 95
Cc1ccc(OCC2CCCCN2C(=O)c2c(C(F)F)nn(C)c2F)cc1 (stereo not drawn) [Example 150] | 3.35 | 100 | 100

Now from value to molecule, other results behind:

logP [1] | SMILES | Efficacy (Pyrenophora teres) [%] | Efficacy (Alternaria solani) [%]
3.13 | Cn1nc(C(F)F)c(C(=O)N2CCCCC2Cc2cccc(F)c2)c1F (stereo not drawn) [Example 153] | 100 | 100
3.21 | Cc1nc(C(F)F)c(C(=O)N2CCCCC2Cc2ccc(F)cc2)s1 (stereo not drawn) [Example 154] | 100 | 89
3.17 | COc1ccccc1CC1CCCCN1C(=O)c1c(C(F)F)nn(C)c1F (stereo not drawn) [Example 157] | 100 | 100
3.87 | COc1ccccc1CC1CCCCN1C(=S)c1c(C(F)F)nn(C)c1F (stereo not drawn) [Example 160] | 100 | 90
4.06 | CC(c1ccccc1Cl)C1CCCCN1C(=O)c1c(C(F)F)nn(C)c1Cl (stereo not drawn) [Example 164] | 100 | 89
3.59 | Cn1nc(C(F)F)c(C(=O)N2CCCCC2Cc2cccc(C(F)(F)F)c2)c1F (stereo not drawn) [Example 169] | 100 | 100
3.87 | Cn1nc(C(F)F)c(C(=O)N2CCCCC2COc2ccc3ccccc3c2)c1Cl (stereo not drawn) [Example 172] | 90 | 80
3.68 | Cn1nc(C(F)F)c(C(=O)N2CCCCC2COc2ccc3ccccc3c2)c1F (stereo not drawn) [Example 173] | 95 | 100
3.37 | Cn1nc(C(F)F)c(C(=O)N2CCCCC2CCc2ccccc2)c1F (stereo not drawn) [Example 177] | 95 | 100
4.06 | Cn1nc(C(F)F)c(C(=S)N2CCCCC2CCc2ccccc2)c1F (stereo not drawn) [Example 179] | 100 | 95
4.11 | Cc1cc(C)cc(OCCC2CCCCN2C(=O)c2c(C(F)F)nn(C)c2Cl)c1 (stereo not drawn) [Example 180] | 80 | 80
3.92 | Cc1cc(C)cc(OCCC2CCCCN2C(=O)c2c(C(F)F)nn(C)c2F)c1 (stereo not drawn) [Example 181] | 100 | 100
3.29 | Cn1nc(C(F)F)c(C(=O)N2CCCCC2CCOc2ccc(F)cc2F)c1F (stereo not drawn) [Example 182] | 100 | 100
3.46 | Cn1nc(C(F)F)c(C(=O)N2CCCCC2CCOc2ccc(F)cc2F)c1Cl (stereo not drawn) [Example 183] | 100 | 95
4.26 | Cn1nc(C(F)F)c(C(=O)N2CCCCC2CCOc2ccc(Cl)cc2Cl)c1Cl (stereo not drawn) [Example 184] | 100 | 95
4.06 | Cn1nc(C(F)F)c(C(=O)N2CCCCC2CCOc2ccc(Cl)cc2Cl)c1F (stereo not drawn) [Example 185] | 95 | 100
4.39 | Cn1nc(C(F)F)c(C(=O)N2CCCCC2CCOc2ccccc2-c2ccccc2)c1Cl (stereo not drawn) [Example 186] | 95 | 80
4.21 | Cn1nc(C(F)F)c(C(=O)N2CCCCC2CCOc2ccccc2-c2ccccc2)c1F (stereo not drawn) [Example 187] | 95 | 95
4.49 | Cn1nc(C(F)F)c(C(=O)N2CCCCC2CCOc2ccc(-c3ccccc3)cc2)c1Cl (stereo not drawn) [Example 188] | 95 | 70
4.31 | Cn1nc(C(F)F)c(C(=O)N2CCCCC2CCOc2ccc(-c3ccccc3)cc2)c1F (stereo not drawn) [Example 189] | 95 | 100
4.09 | Cn1nc(C(F)F)c(C(=O)N2CCCCC2CCOc2ccc3ccccc3c2)c1Cl (stereo not drawn) [Example 190] | 95 | 90

From patent US9545105B2, “1-(heterocyclic carbonyl) piperidines” (BAYER INTELLECTUAL PROPERTY GMBH, priority 2010, dated 2017)
